The numbers were not newly measured in article PMC8400941, “Preclinical Toxicity and Safety of MM-129—First-in-Class BTK/PD-L1 Inhibitor as a Potential Candidate against Colon Cancer” (Pharmaceutics, 2021), which cites them from elsewhere.

For one data set, the system named is BFU-E growth. Details: method as in PMID 17318617. The conditions noted are these: multiple administration, 350 mg/kg/day, transient; cited from earlier work.
In another data set the test system is zebrafish embryos/larvae. The conditions noted are these: 5 μM; cited from earlier work.
The subject of another data set is patients. As to conditions: chemotherapy regimens used in CRC; cited from earlier work.
On the set-up of data set [1]: method as in PMID 24079553. The conditions noted are these: cited from earlier work.

Structures are written as SMILES.

In the case of `CC[C@H](CO)Nc1nc(NCc2ccccc2)c2ncn(C(C)C)c2n1` [seliciclib], the “BFU-E growth, of the controls” value in the data set with BFU-E growth is reported as “less than 50%”. In the data set on zebrafish embryos/larvae, the “embryos with absence of swimming activity, lack of heartbeat and tail blood flow” value was 57%; the “larvae with curved body” value is 50%; the “larvae with edema (both mild and severe)” value is on record as 82%.

As to `O=c1[nH]cc(F)c(=O)[nH]1` [5-FU, 5-fluorouracil], in the data set with patients, the patients with hepatotoxicity entry is given as “up to 47%”.

As to `CC[C@H](CO)Nc1nc(NCc2ccc(-c3ccccn3)cc2)c2ncn(C(C)C)c2n1` [CR8], the elimination half-life result in data set [1] is on record as “about 3 h”.
